Laboratory results: ChEMBL document CHEMBL1201862, “PubChem BioAssay data set” (2004)
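Dose response: 5 concentrations. Exposure: 48 h. Format: 96-well plates. Endpoint: linear interpolation; highest concentration if not reached. The concentration for 50% growth inhibition is given as GI50.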 Active and inactive are the calls of the source. No stated cut-off is given here; in the data, active = GI50 up to about 1.1 µM and inactive = higher.

Tests used:
Assay in all cases: NCI anticancer screen, dose series, 48 h
ACHN = test system: ACHN
TK-10 = test system: TK-10
COLO 205 = test system: COLO 205
UACC-257 = test system: UACC-257
RXF 393 = test system: RXF 393
SF-268 = test system: SF-268
OVCAR-8 = test system: OVCAR-8
HCC 2998 = test system: HCC 2998
CAKI-1 = test system: CAKI-1
LXFL 529 = test system: LXFL 529
SK-OV-3 = test system: SK-OV-3
DMS-114 = test system: DMS-114
HL-60 = test system: HL-60
RXF 631 = test system: RXF 631
LOX IMVI = test system: LOX IMVI
KM-20L2 = test system: KM-20L2
M19-MEL = test system: M19-MEL
HCT-116 = test system: HCT-116
MOLT-4 = test system: MOLT-4
M14 = test system: M14
OVCAR-4 = test system: OVCAR-4
UO-31 = test system: UO-31
HOP-18 = test system: HOP-18
SN12C = test system: SN12C
SK-MEL-28 = test system: SK-MEL-28
DLD-1 = test system: DLD-1
SF-295 = test system: SF-295
CCRF-CEM = test system: CCRF-CEM
HOP-62 = test system: HOP-62
HCT-15 = test system: HCT-15
NCI-H226 = test system: NCI-H226
EKVX = test system: EKVX
OVCAR-3 = test system: OVCAR-3
IGROV-1 = test system: IGROV-1
NCI-H522 = test system: NCI-H522
SW-620 = test system: SW-620
UACC-62 = test system: UACC-62
NCI-H460 = test system: NCI-H460
Malme-3M = test system: Malme-3M
A549 = test system: A549
SNB-19 = test system: SNB-19
SK-MEL-5 = test system: SK-MEL-5
SNB-75 = test system: SNB-75
SF-539 = test system: SF-539
NCI-H23 = test system: NCI-H23
786-0 = test system: 786-0
SR = test system: SR
KM12 = test system: KM12
HT-29 = test system: HT-29
HOP-92 = test system: HOP-92
XF498 = test system: XF498
DMS-273 = test system: DMS-273
RPMI-8226 = test system: RPMI-8226
U-251 = test system: U-251
SK-MEL-2 = test system: SK-MEL-2
OVCAR-5 = test system: OVCAR-5
K562 = test system: K562
MCF7 = test system: MCF7
BT-549 = test system: BT-549
MDA-N = test system: MDA-N
DU-145 = test system: DU-145
SNB-78 = test system: SNB-78
MDA-MB-435 = test system: MDA-MB-435
A498 = test system: A498
T47D = test system: T47D
Hs-578T = test system: Hs-578T
PC-3 = test system: PC-3
MDA-MB-231 = test system: MDA-MB-231
NCI/ADR-RES = test system: NCI/ADR-RES

Measured: GI50

COC(=O)C(=O)C(C(=O)C(=O)Nc1cc([N+](=O)[O-])ccc1C#N)c1nc2ccccc2nc1O (stereo not given)
inactive: ACHN > 100 µM | TK-10 > 100 µM | COLO 205 > 100 µM | UACC-257 > 100 µM | RXF 393 > 100 µM | SF-268 > 100 µM | OVCAR-8 > 100 µM | HCC 2998 > 100 µM | CAKI-1 > 100 µM | LXFL 529 > 100 µM | SK-OV-3 > 100 µM | DMS-114 > 100 µM | HL-60 > 100 µM | RXF 631 > 100 µM | LOX IMVI > 100 µM | KM-20L2 > 100 µM | M19-MEL > 100 µM | HCT-116 > 100 µM | MOLT-4 > 100 µM | M14 > 100 µM | OVCAR-4 > 100 µM | UO-31 99.3 µM | HOP-18 > 100 µM | SN12C > 100 µM | SK-MEL-28 > 100 µM | DLD-1 > 100 µM | SF-295 > 100 µM | CCRF-CEM > 100 µM | HOP-62 > 100 µM | NCI-H226 > 100 µM | EKVX 35.5 µM | OVCAR-3 > 100 µM | IGROV-1 > 100 µM | NCI-H522 > 100 µM | SW-620 > 100 µM | UACC-62 > 100 µM | NCI-H460 > 100 µM | Malme-3M > 100 µM | A549 > 100 µM | SNB-19 > 100 µM | SK-MEL-5 > 100 µM | SNB-75 > 100 µM | SF-539 > 100 µM | NCI-H23 > 100 µM | 786-0 > 100 µM | SR > 100 µM | KM12 > 100 µM | HT-29 > 100 µM | HOP-92 40.6 µM | XF498 > 100 µM | DMS-273 > 100 µM
> 100 µM: HCT-15

CCCOP1(=O)C=C(C)C(Cl)=C(C)C1 (stereo not given)
20 µM: HCT-15
inactive: ACHN 21.4 µM | TK-10 23.1 µM | COLO 205 11.2 µM | RPMI-8226 12 µM | UACC-257 17.7 µM | RXF 393 18 µM | SF-268 14.6 µM | OVCAR-8 27 µM | HCC 2998 54.7 µM | LXFL 529 20.7 µM | SK-OV-3 38.3 µM | DMS-114 19.7 µM | HL-60 22.3 µM | RXF 631 37.1 µM | LOX IMVI 13.3 µM | KM-20L2 29.3 µM | M19-MEL 21 µM | HCT-116 18 µM | MOLT-4 17.6 µM | M14 15.3 µM | OVCAR-4 26.9 µM | UO-31 45.3 µM | HOP-18 29.4 µM | SN12C 20.2 µM | SK-MEL-28 18.3 µM | DLD-1 22.8 µM | SF-295 25.2 µM | CCRF-CEM 15 µM | HOP-62 42.4 µM | NCI-H226 20.9 µM | EKVX 74.3 µM | OVCAR-3 25.2 µM | IGROV-1 34.6 µM | NCI-H522 15 µM | SW-620 17.1 µM | UACC-62 15 µM | U-251 23.2 µM | NCI-H460 31.2 µM | SK-MEL-2 6.11 µM | A549 21.6 µM | SNB-19 > 100 µM | SK-MEL-5 18.7 µM | SNB-75 22.6 µM | SF-539 25.7 µM | NCI-H23 16.9 µM | 786-0 16.9 µM | OVCAR-5 29.8 µM | SR 17.9 µM | K562 24.7 µM | KM12 19.1 µM | HT-29 22.1 µM | HOP-92 18.4 µM | XF498 16.5 µM | DMS-273 14.6 µM

NC(=O)c1cccc([C@@H]2O[C@H](CO)[C@@H](O)[C@H]2O)c1
inactive: ACHN 18.2 µM | TK-10 29.6 µM | COLO 205 12.2 µM | RPMI-8226 4.42 µM | MCF7 > 37.3 µM | UACC-257 > 100 µM | RXF 393 8.89 µM | SF-268 6.81 µM | OVCAR-8 3.79 µM | HCC 2998 29.3 µM | CAKI-1 18.4 µM | BT-549 14.5 µM | SK-OV-3 7.21 µM | DMS-114 15.3 µM | HL-60 3.21 µM | RXF 631 12 µM | LOX IMVI 36 µM | KM-20L2 7.36 µM | M19-MEL 21 µM | HCT-116 18.5 µM | MOLT-4 1.23 µM | M14 3.2 µM | OVCAR-4 5.45 µM | MDA-N 24.1 µM | UO-31 5.35 µM | HOP-18 26.1 µM | DU-145 30.6 µM | SNB-78 7.43 µM | SN12C 40.4 µM | SK-MEL-28 6.98 µM | MDA-MB-435 > 49.2 µM | DLD-1 5.46 µM | SF-295 9.06 µM | CCRF-CEM 1.33 µM | HOP-62 8.3 µM | NCI-H226 12.5 µM | EKVX 68.7 µM | OVCAR-3 18.9 µM | IGROV-1 37.8 µM | NCI-H522 4.14 µM | SW-620 7.78 µM | UACC-62 29.1 µM | U-251 11.5 µM | NCI-H460 48.5 µM | Malme-3M > 100 µM | A498 > 100 µM | T47D > 35.8 µM | SK-MEL-2 > 97.1 µM | A549 27.2 µM | SNB-19 14 µM | Hs-578T 10.5 µM | PC-3 30.9 µM | SK-MEL-5 32.2 µM | SNB-75 4.18 µM | SF-539 2.24 µM | NCI-H23 10.3 µM | 786-0 3.72 µM | OVCAR-5 47.4 µM | SR 23.7 µM | K562 3.17 µM | MDA-MB-231 77.1 µM | KM12 4.09 µM | HT-29 16.2 µM | HOP-92 18.5 µM | XF498 2.05 µM | DMS-273 7.66 µM | NCI/ADR-RES 6.41 µM
3.37 µM: HCT-15
